ChEMBL document CHEMBL4400517, “Marine natural products as potential anti-tubercular agents” (Eur J Med Chem, 2019)
≈ marks a conversion by molar mass, not a printed value.

Experiments:
[1] = tested on: Mycolicibacterium smegmatis; test: Antimycobacterial activity against Mycobacterium smegmatis MC2 155 by broth dilution method; format: functional
[2] = Inhibition of Mycobacterium PknG
[3] = tested on: Mycobacterium tuberculosis; test: Antimycobacterial activity against Mycobacterium tuberculosis H37Rv assessed as inhibition of mycobacterial growth at 12 ug/ml relative to control; format: functional
[4] = tested on: Mycobacterium tuberculosis; test: Antimycobacterial activity against Mycobacterium tuberculosis H37Rv ATCC 27294 by Alamar Blue staining-based broth microdilution assay; format: functional
[5] = tested on: Mycobacterium tuberculosis; test: Antimycobacterial activity against Mycobacterium tuberculosis H37Rv by Alamar Blue assay; format: functional
[6] = tested on: Mycolicibacterium smegmatis; test: Antimycobacterial activity against Mycobacterium smegmatis; format: functional
[7] = tested on: Mycobacterium tuberculosis; test: Antimycobacterial activity against Mycobacterium tuberculosis H37Ra; format: functional
[8] = tested on: Mycobacterium tuberculosis; test: Antimycobacterial activity against Mycobacterium tuberculosis H37Rv; format: functional, organism-based
[9] = target: T1, Enoyl-[acyl-carrier-protein] reductase [NADH] (Mycobacterium tuberculosis) (UniProt P9WGR1); test: Inhibition of Mycobacterium tuberculosis InhA enzyme at 10 uM relative to control
T1 sequence (whole entry): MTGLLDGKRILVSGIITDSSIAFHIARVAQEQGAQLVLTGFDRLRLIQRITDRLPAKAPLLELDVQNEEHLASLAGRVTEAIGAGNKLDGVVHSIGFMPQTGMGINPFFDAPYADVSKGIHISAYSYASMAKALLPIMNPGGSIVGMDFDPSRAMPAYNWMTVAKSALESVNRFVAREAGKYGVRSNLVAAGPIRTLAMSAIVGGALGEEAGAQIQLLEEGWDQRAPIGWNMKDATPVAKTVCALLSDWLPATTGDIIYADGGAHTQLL

[10] = tested on: Mycobacterium tuberculosis; test: Antimycobacterial activity against Mycobacterium tuberculosis assessed as diameter of inhibition zone at 40 ug/disc; format: functional; conditions: read-out: IZ
[11] = tested on: Mycobacterium tuberculosis; test: Antimycobacterial activity against Mycobacterium tuberculosis H37Rv by broth dilution method; format: functional
[12] = target: T2, Phosphotyrosine protein phosphatase (Mycobacterium tuberculosis, UniProt A0A045ISB3); test: Inhibition of Mycobacterium tuberculosis Protein Tyrosine Phosphatase B
T2 sequence (A0A045ISB3 whole entry): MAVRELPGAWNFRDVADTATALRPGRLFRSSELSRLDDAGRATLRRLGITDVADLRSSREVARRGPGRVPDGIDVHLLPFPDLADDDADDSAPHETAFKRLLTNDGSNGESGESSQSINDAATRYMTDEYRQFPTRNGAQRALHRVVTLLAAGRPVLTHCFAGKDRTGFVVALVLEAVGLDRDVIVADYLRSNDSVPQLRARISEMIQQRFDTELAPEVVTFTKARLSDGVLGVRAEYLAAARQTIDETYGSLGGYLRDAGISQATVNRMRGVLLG

[13] = tested on: Mycobacterium tuberculosis; test: Antimycobacterial activity against Mycobacterium tuberculosis incubated for overnight by NCCLS broth dilution method; format: functional

SMILES: C/C=C/C[C@@H]1NC(=O)[C@H](CC(C)C)N2C(=O)[C@H](C[C@H](C)[C@@H]2O)N(C)C(=O)[C@H](C)NC(=O)[C@H](Cc2ccc(O)c([N+](=O)[O-])c2)NC(=O)[C@H](CC(C)C)N(C)C(=O)[C@H](Cc2cn(C(C)(C)[C@H]3CO3)c3ccccc23)NC1=O
- MIC [1]: 0.12 µM (≈ 0.125 µg/mL)

SMILES: CC[C@H](C)/C=C(C)/C=C/C1=CC2=C(Cl)C(=O)[C@](C)(OC(C)=O)C(=O)C2=CO1 [SCLEROTIORIN]
- IC50 [2]: 76500 nM

SMILES: C/C=C/C[C@@H]1NC(=O)[C@H](CC(C)C)N2C(=O)[C@H](C[C@H](C)[C@H]2O)N(C)C(=O)[C@H](C)NC(=O)[C@H](Cc2ccc(O)c([N+](=O)[O-])c2)NC(=O)[C@H](CC(C)C)N(C)C(=O)[C@H](Cc2cn(C(C)(C)[C@H]3CO3)c3ccccc23)NC1=O
- MIC [1]: 0.12 µM (≈ 0.125 µg/mL)

SMILES: CCC(C)C(=O)N[C@H](Cc1ccccc1)C(=O)NC1C(=O)N[C@H](CC(C)C)C(=O)N[C@H](Cc2ccccc2)C(=O)N[C@H](CC(C)C)C(=O)N[C@H]([C@H](C)O)C(=O)N[C@@H](CO)C(=O)O[C@@H]1C (stereo not given in full)
- inhibition at 12 µg/mL [3]: 83%

SMILES: CCCCCCC[C@@H]1C[C@@H]2CCC3=C(C(=O)OC(C)CCCCCC[C@@H]4C[C@@H]5CC[C@@H]6C[C@H](C)NC(=N4)N65)C(C)N=C(N1)N32 (stereo not given in full)
- MIC [4]: 5.23 µM (≈ 3.18 µg/mL)

SMILES: C[C@@H]1C[C@H](C)C(=O)/C=C/[C@@H]2[C@@H](O)[C@H]3OC4=C(C(=O)O[C@@]42C[C@H]3C)C1=O (stereo in doubt; (+)-145)
- MIC [5]: 7.2 µM (≈ 2.49 µg/mL)

SMILES: C1=C2CCCC/C=C\C=C\CCN3CC[C@@H]4[C@H](CCCCCC/C=C\C=C/CCN(C2)C[C@H]14)C3 (relative stereo) [HALICYCLAMINE A]
- MIC [6]: 2.16 to 10.8 µM (≈ 1 to 5.01 µg/mL)
- MIC [7]: 2.16 to 10.8 µM (≈ 1 to 5.01 µg/mL)

SMILES: CCCCCC(=O)c1c(O)cc(CCCCC)oc1=O
- MIC [8]: 2.79 µM (≈ 0.782 µg/mL)
- inhibition [9]: 68%

SMILES: COc1cc(OC)c2c(O)c3c(=O)cc(C)oc3c(-c3c4cc(O)cc(OC)c4c(O)c4c(=O)cc(C)oc34)c2c1
- zone of inhibition at 40 µg/disc [10]: 11 mm

SMILES: C[C@@H]1C[C@H](C)C(=O)/C=C/[C@@H]2[C@@H](O)[C@H]3OC4=C(C(=O)O[C@@]42C[C@H]3C)C1=O (stereo in doubt; (-)-145)
- MIC ([5]; Mycobacterium tuberculosis, H37Rv, read-out: MIC): 3.6 µM (≈ 1.25 µg/mL)

SMILES: C/C=C1\NC(=O)[C@H](Cc2ccccc2)NC(=O)[C@@H](C(C)C)NC(=O)[C@@H]([C@@H](C)CC)NC(=O)[C@H](NC(=O)[C@H](NC(=O)[C@H](CCCN)NC(=O)[C@H]2CCCN2C(=O)[C@H](NC(=O)[C@@H](NC(=O)[C@@H](NC(=O)[C@H](NC(=O)CCCC(C)C)C(C)C)[C@@H](C)O)C(C)C)C(C)C)[C@@H](C)CC)[C@@H](C)OC(=O)[C@H](C(C)C)NC1=O
- inhibition at 12 µg/mL [3]: 67%

SMILES: CCCCCCCc1cc(O)c(CCCCCC)c(=O)o1 [PSEUDOPYRONINES B]
- MIC [8]: 2.65 to 5.31 µM (≈ 0.78 to 1.56 µg/mL)
- inhibition [9]: 12%

SMILES: C=CC(C)(C)n1cc(C[C@@H]2NC(=O)[C@H](C/C=C/C)NC(=O)[C@H](CC(C)C)N3C(=O)[C@H](C[C@H](C)[C@H]3O)N(C)C(=O)[C@H](C)NC(=O)[C@H](Cc3ccc(O)c([N+](=O)[O-])c3)NC(=O)[C@H](CC(C)C)N(C)C2=O)c2ccccc21
- MIC [11]: 0.0098 µM (≈ 0.0101 µg/mL)

SMILES: CC(=O)c1cc(C)c(O)c(Cc2c(O)cc(-c3ccc(O)c(O)c3)oc2=O)c1O
- IC50 [12]: 160 nM

SMILES: CC(=O)c1cc(C)c(O)c(CC2=C(C)C(=O)C(O)=C(C)C2=O)c1O
- IC50 [12]: 1370 nM

SMILES: CN1C(=O)[C@]23CC4=CC=C[C@H](O)[C@H]4N2C(=O)[C@@]1(CO)SS3 [GLIOTOXIN]
- MIC [13]: < 0.03 µM

SMILES: C=CC(C)(C)n1cc(C[C@@H]2NC(=O)[C@H](C/C=C/C)NC(=O)[C@H](CC(C)C)N3C(=O)[C@H](C[C@H](C)[C@@H]3O)N(C)C(=O)[C@H](C)NC(=O)[C@H](Cc3ccc(O)c([N+](=O)[O-])c3)NC(=O)[C@H](CC(C)C)N(C)C2=O)c2ccccc21
- MIC [11]: 0.0098 µM (≈ 0.0101 µg/mL)
